ChEMBL document CHEMBL1142549, “New retinoid chemotypes: 9-cis-retinoic acid analogs with hydrophobic rings derived from terpenes as selective RAR agonists” (Bioorg Med Chem, 2008)
Activity calls are given as the source filed them. The rule behind the calls is not given here.

Molecular target: T1, Retinoic acid receptor RXR-beta (Homo sapiens) (UniProt P28702)
T1 sequence (whole entry): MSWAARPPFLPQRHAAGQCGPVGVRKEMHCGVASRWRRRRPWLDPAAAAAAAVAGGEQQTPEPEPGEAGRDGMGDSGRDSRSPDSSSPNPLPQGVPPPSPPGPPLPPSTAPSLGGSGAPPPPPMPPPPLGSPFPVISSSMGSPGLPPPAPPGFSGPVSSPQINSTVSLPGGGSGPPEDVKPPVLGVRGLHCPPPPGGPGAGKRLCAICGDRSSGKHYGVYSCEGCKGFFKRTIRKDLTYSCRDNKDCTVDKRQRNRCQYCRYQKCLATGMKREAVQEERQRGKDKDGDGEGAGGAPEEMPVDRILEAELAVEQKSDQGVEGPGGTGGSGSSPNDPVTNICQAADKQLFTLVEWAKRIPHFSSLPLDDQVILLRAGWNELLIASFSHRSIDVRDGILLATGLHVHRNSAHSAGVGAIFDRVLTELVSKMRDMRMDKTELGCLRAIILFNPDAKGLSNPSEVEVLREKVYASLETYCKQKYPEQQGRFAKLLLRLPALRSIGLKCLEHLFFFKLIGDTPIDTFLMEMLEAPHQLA
Test: Agonist activity at human RXRbeta expressed in human HeLa cells assessed as relative luminescence units by luciferase assay relative to control
Assay type: functional, cell-based

**Q.** `CC(=C/C=C/C(C)=C/C(=O)O)/C=C/C1=C[C@H](C)CC[C@H]1C(C)C` was tested. Which Activity did it give?
**A.** Active
